In PubChem BioAssay AID248 (DTP/NCI, 2004):
“And” between values parts separate entries of the source, which are not always exact repeats. Equal entries are not always repeated. Toxic doses and inconclusive results are not listed. No stated cut-off is given here; in the data, active means T/C of 150% or more; inactive means T/C below 125%.

Tested on: L1210 leukemia ip in BDF1 mice, survival T/C
Experiment: NCI In Vivo Anticancer Drug Screen. Data for tumor model L1210 Leukemia (intraperitoneal) in B6D2F1 (BDF1) mice
Details: higher = longer survival
Method in brief: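 Ratio derived from survival: compound-dosed mice over vehicle-dosed mice, all bearing a transplantable tumor.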

[1] = endpoint: mean survival time, dose: 100.0 mg/kg/injection, schedule: Q01DX009 (ip), vehicle: Klucel (hydroxypropylcellulose) (HPC)
[2] = endpoint: mean survival time, dose: 100.0 mg/kg/injection, schedule: Q04DX003 (ip), vehicle: Klucel (hydroxypropylcellulose) (HPC)
[3] = endpoint: mean survival time, dose: 200.0 mg/kg/injection, schedule: Q01DX009 (ip), vehicle: Klucel (hydroxypropylcellulose) (HPC)
[4] = endpoint: mean survival time, dose: 200.0 mg/kg/injection, schedule: Q04DX003 (ip), vehicle: Klucel (hydroxypropylcellulose) (HPC)
[5] = endpoint: mean survival time, dose: 400.0 mg/kg/injection, schedule: Q01DX009 (ip), vehicle: Klucel (hydroxypropylcellulose) (HPC)
[6] = endpoint: mean survival time, dose: 400.0 mg/kg/injection, schedule: Q04DX003 (ip), vehicle: Klucel (hydroxypropylcellulose) (HPC)
[7] = endpoint: mean survival time, dose: 100.0 mg/kg/injection, schedule: Q04DX002 (ip), vehicle: saline with Tween-80
[8] = endpoint: mean survival time, dose: 200.0 mg/kg/injection, schedule: Q04DX002 (ip), vehicle: saline with Tween-80
[9] = endpoint: mean survival time, dose: 100.0 mg/kg/injection, schedule: Q01DX001 (ip), vehicle: other
[10] = endpoint: mean survival time, dose: 200.0 mg/kg/injection, schedule: Q01DX001 (ip), vehicle: other
[11] = endpoint: mean survival time, dose: 400.0 mg/kg/injection, schedule: Q01DX001 (ip), vehicle: other
[12] = endpoint: mean survival time, dose: 100.0 mg/kg/injection, schedule: Q01DX001 (ip), vehicle: Klucel (hydroxypropylcellulose) (HPC)
[13] = endpoint: mean survival time, dose: 200.0 mg/kg/injection, schedule: Q01DX001 (ip), vehicle: Klucel (hydroxypropylcellulose) (HPC)
[14] = endpoint: mean survival time, dose: 400.0 mg/kg/injection, schedule: Q01DX001 (ip), vehicle: Klucel (hydroxypropylcellulose) (HPC)
[15] = endpoint: mean survival time, dose: 100.0 mg/kg/injection, schedule: Q04DX003 (ip), vehicle: saline with Tween-80
[16] = endpoint: mean survival time, dose: 200.0 mg/kg/injection, schedule: Q04DX003 (ip), vehicle: saline with Tween-80
[17] = endpoint: mean survival time, dose: 400.0 mg/kg/injection, schedule: Q04DX003 (ip), vehicle: saline with Tween-80
[18] = endpoint: mean survival time, dose: 100.0 mg/kg/injection, schedule: Q04DX002 (ip), vehicle: Klucel (hydroxypropylcellulose) (HPC)
[19] = endpoint: mean survival time, dose: 200.0 mg/kg/injection, schedule: Q04DX002 (ip), vehicle: Klucel (hydroxypropylcellulose) (HPC)
[20] = endpoint: mean survival time, dose: 400.0 mg/kg/injection, schedule: Q04DX002 (ip), vehicle: Klucel (hydroxypropylcellulose) (HPC)

Measured: T/C

O=CCC(O)C(O)C(O)CO (stereo not given)
inactive: endpoint: mean survival time, dose: 62.5 mg/kg/injection, schedule: Q01DX009 (ip), vehicle: saline 115 % of control and 91 % of control | endpoint: mean survival time, dose: 125.0 mg/kg/injection, schedule: Q01DX009 (ip), vehicle: saline 94 % of control and 95 % of control | endpoint: mean survival time, dose: 125.0 mg/kg/injection, schedule: Q01DX010 (ip), vehicle: saline 94 % of control and 92 % of control | endpoint: mean survival time, dose: 125.0 mg/kg/injection, schedule: Q01DX Z (ip), vehicle: carboxymethylcellulose (CMC) 98 % of control | endpoint: mean survival time, dose: 250.0 mg/kg/injection, schedule: Q01DX001 (ip), vehicle: saline 101 % of control | endpoint: mean survival time, dose: 250.0 mg/kg/injection, schedule: Q01DX009 (ip), vehicle: saline 102 % of control and 104 % of control | endpoint: mean survival time, dose: 250.0 mg/kg/injection, schedule: Q01DX010 (ip), vehicle: saline 97 % of control and 101 % of control | endpoint: mean survival time, dose: 250.0 mg/kg/injection, schedule: Q01DX Z (ip), vehicle: carboxymethylcellulose (CMC) 102 % of control | endpoint: mean survival time, dose: 500.0 mg/kg/injection, schedule: Q01DX001 (ip), vehicle: saline 100 % of control | endpoint: mean survival time, dose: 500.0 mg/kg/injection, schedule: Q01DX009 (ip), vehicle: saline 101 % of control | endpoint: mean survival time, dose: 500.0 mg/kg/injection, schedule: Q01DX010 (ip), vehicle: saline 94 % of control and 101 % of control | endpoint: mean survival time, dose: 500.0 mg/kg/injection, schedule: Q01DX Z (ip), vehicle: carboxymethylcellulose (CMC) 116 % of control | endpoint: mean survival time, dose: 1000.0 mg/kg/injection, schedule: Q01DX001 (ip), vehicle: saline 101 % of control | endpoint: mean survival time, dose: 1000.0 mg/kg/injection, schedule: Q01DX010 (ip), vehicle: saline 102 % of control and 104 % of control | endpoint: mean survival time, dose: 1000.0 mg/kg/injection, schedule: Q01DX Z (ip), vehicle: carboxymethylcellulose (CMC) 109 % of control | endpoint: mean survival time, dose: 2000.0 mg/kg/injection, schedule: Q01DX001 (ip), vehicle: saline 106 % of control | endpoint: median survival time, dose: 62.5 mg/kg/injection, schedule: Q01DX009 (ip), vehicle: saline 100 % of control | endpoint: median survival time, dose: 125.0 mg/kg/injection, schedule: Q01DX009 (ip), vehicle: saline 111 % of control | endpoint: median survival time, dose: 250.0 mg/kg/injection, schedule: Q01DX009 (ip), vehicle: saline 100 % of control | endpoint: median survival time, dose: 500.0 mg/kg/injection, schedule: Q01DX009 (ip), vehicle: saline 100 % of control and 105 % of control

Cc1cc(=O)[nH]c2c1C(=O)c1c(C)cc(=O)n(C)c1C2=O
inactive: endpoint: mean survival time, dose: 0.75 mg/kg/injection, schedule: Q01DX009 (ip), vehicle: Klucel (hydroxypropylcellulose) (HPC) 95 % of control | endpoint: mean survival time, dose: 1.0 mg/kg/injection, schedule: Q04DX003 (ip), vehicle: Klucel (hydroxypropylcellulose) (HPC) 93 % of control | endpoint: mean survival time, dose: 1.5 mg/kg/injection, schedule: Q01DX009 (ip), vehicle: Klucel (hydroxypropylcellulose) (HPC) 100 % of control | endpoint: mean survival time, dose: 3.0 mg/kg/injection, schedule: Q01DX009 (ip), vehicle: Klucel (hydroxypropylcellulose) (HPC) 95 % of control and 96 % of control | endpoint: mean survival time, dose: 3.0 mg/kg/injection, schedule: Q04DX003 (ip), vehicle: Klucel (hydroxypropylcellulose) (HPC) 105 % of control | endpoint: mean survival time, dose: 6.0 mg/kg/injection, schedule: Q04DX003 (ip), vehicle: Klucel (hydroxypropylcellulose) (HPC) 92 % of control

CCCCCCCCCC(O)CCC (stereo not given)
inactive: [1] 103 % of control | [2] 96 % of control | [3] 109 % of control | [4] 91 % of control | [5] 103 % of control | [6] 89 % of control

CO/C(C)=C(/C#N)C(N)=S
inactive: [7] 93 % of control | [8] 97 % of control | endpoint: mean survival time, dose: 400.0 mg/kg/injection, schedule: Q04DX002 (ip), vehicle: saline with Tween-80 101 % of control

CCOP(=S)(NCCCOC)OCC
inactive: [9] 94 % of control | endpoint: mean survival time, dose: 100.0 mg/kg/injection, schedule: Q01DX009 (ip), vehicle: other 92 % of control | endpoint: mean survival time, dose: 100.0 mg/kg/injection, schedule: Q04DX003 (ip), vehicle: other 87 % of control | [10] 93 % of control | endpoint: mean survival time, dose: 200.0 mg/kg/injection, schedule: Q01DX009 (ip), vehicle: other 93 % of control | endpoint: mean survival time, dose: 200.0 mg/kg/injection, schedule: Q04DX003 (ip), vehicle: other 92 % of control | [11] 98 % of control | endpoint: mean survival time, dose: 400.0 mg/kg/injection, schedule: Q01DX009 (ip), vehicle: other 88 % of control | endpoint: mean survival time, dose: 400.0 mg/kg/injection, schedule: Q04DX003 (ip), vehicle: other 93 % of control

O=C(NCCCCCCNC(=O)N(O)C12CC3CC(CC(C3)C1)C2)N(O)C12CC3CC(CC(C3)C1)C2
inactive: [12] 95 % of control | [13] 90 % of control | [14] 90 % of control

Cc1ccc(-c2nc3cc(Cl)ccc3c(=O)o2)cc1
inactive: [15] 105 % of control | [16] 102 % of control | [17] 94 % of control

C=CCc1cc2c(cc(OC)c1=O)C(NC(C)=O)CCc1cc(OC)c(OC)c(OC)c1-2 (stereo not given)
inactive: endpoint: mean survival time, dose: 100.0 mg/kg/injection, schedule: Q01DX001 (ip), vehicle: carboxymethylcellulose (CMC) 106 % of control | endpoint: mean survival time, dose: 200.0 mg/kg/injection, schedule: Q01DX001 (ip), vehicle: carboxymethylcellulose (CMC) 109 % of control | endpoint: mean survival time, dose: 400.0 mg/kg/injection, schedule: Q01DX001 (ip), vehicle: carboxymethylcellulose (CMC) 114 % of control

Cc1ccc(C2CCCN2C)cc1 (stereo not given)
inactive: endpoint: mean survival time, dose: 25.0 mg/kg/injection, schedule: Q04DX003 (ip), vehicle: acetone 96 % of control | endpoint: mean survival time, dose: 50.0 mg/kg/injection, schedule: Q04DX003 (ip), vehicle: acetone 94 % of control | endpoint: mean survival time, dose: 100.0 mg/kg/injection, schedule: Q01DX001 (ip), vehicle: acetone 88 % of control | endpoint: mean survival time, dose: 100.0 mg/kg/injection, schedule: Q04DX003 (ip), vehicle: acetone 99 % of control

CN(C)c1ccc(C(=O)c2ccc(N(C)C)c(N)c2)cc1N
inactive: [9] 106 % of control | [10] 92 % of control | [11] 101 % of control

CC(c1ccc([N+](=O)[O-])cc1)n1cnc2c(N(CCO)CCO)ncnc21 (stereo not given)
inactive: endpoint: mean survival time, dose: 100.0 mg/kg/injection, schedule: Q01DX001 (ip), vehicle: saline 104 % of control | endpoint: mean survival time, dose: 200.0 mg/kg/injection, schedule: Q01DX001 (ip), vehicle: saline 103 % of control | endpoint: mean survival time, dose: 400.0 mg/kg/injection, schedule: Q01DX001 (ip), vehicle: saline 103 % of control

CCCCCCCCCC[As]1c2ccccc2Nc2ccccc21
inactive: endpoint: mean survival time, dose: 50.0 mg/kg/injection, schedule: Q04DX002 (ip), vehicle: saline with Tween-80 92 % of control | [7] 89 % of control | [8] 96 % of control

OCc1ccccc1Cn1ccnc1
inactive: [12] 111 % of control | [1] 97 % of control and 105 % of control | [18] 102 % of control and 103 % of control | [2] 105 % of control | [13] 103 % of control | [3] 94 % of control and 87 % of control | [19] 97 % of control and 88 % of control | [4] 111 % of control | [14] 99 % of control | [5] 94 % of control and 96 % of control | [20] 97 % of control and 100 % of control | [6] 110 % of control

CCOC(=O)c1cnccc1C#N
inactive: [18] 88 % of control | [19] 100 % of control | [20] 100 % of control

CC(=O)c1cccc(F)n1
inactive: [18] 93 % of control | [19] 110 % of control | [20] 100 % of control

S=c1sc2ccccc2n1CN(c1ccccc1)c1ccc2ccccc2c1
inactive: endpoint: mean survival time, dose: 100.0 mg/kg/injection, schedule: Q01DX009 (ip), vehicle: saline with Tween-80 88 % of control | [15] 88 % of control | endpoint: mean survival time, dose: 200.0 mg/kg/injection, schedule: Q01DX009 (ip), vehicle: saline with Tween-80 90 % of control | [16] 88 % of control | endpoint: mean survival time, dose: 400.0 mg/kg/injection, schedule: Q01DX009 (ip), vehicle: saline with Tween-80 94 % of control | [17] 93 % of control
